{"source": "patent US7939057B2", "about": "“Methods and compositions for modulating the mobilization of stem cells” (Mount Sinai School of Medicine, priority 2006, dated 2011)", "key": {"[1]": {"test_system": "hematopoietic stem and progenitor cells (HSPCs)", "experiment": "G-CSF-induced mobilization of hematopoietic progenitors (circulating CFU-C)", "type": "in vivo, mice", "conditions": "for G-CSF-induced mobilization with clenbuterol: clenbuterol 2 mg/kg/day i.p. two days before and during G-CSF", "experimental": "(§1) To induce HSPC mobilization, mice were injected with recombinant human G-CSF (Filgrastim, Amgen, Thousand Oaks, Calif., 250 μg/kg/day, every 12 hours, 8 divided doses, s.c.) in PBS supplemented with 0.1% endotoxin free bovine serum albumin (BSA) or fucoidan (Sigma; 2 doses of 100 mg/kg with 2 h interval, i.p.) in PBS. Blood was harvested 3 h (G-CSF) or 1 h (fucoidan). CFU-C assays were carried out as previously described (Katayama, Y., and Frenette, P. S. (2003). Galactocerebrosides are required postnatally for stromal-dependent bone marrow lymphopoiesis. Immunity 18, 789-800).\nA chronic guide cannula (1.0 mm) was implanted stereotaxically into the lateral ventricle (coordinates AP, −0.7 mm; DV, −2.4 mm; ML, 1.5 mm, from bregma). One week after implantation, mice received a reduced dose of G-CSF (25 μg/kg daily for 4 doses) either by ICV infusion (rate: 0.4 μL/min) or by s.c. injection.\n(§2) Newborn C57BL/6 mice were injected s.c. with 6OHDA (100 mg/kg, Sigma) or vehicle (saline) on postnatal days 2, 4, 6, 8 and 9. HSPC mobilization was induced at 3 weeks of age. For SNS disruption in adult C57BL6 mice, 4 week-old animals were injected i.p. with 2 doses of 6OHDA or vehicle, 100 mg/kg on day 0, 250 mg/kg on day 2, and G-CSF treatment was begun on day 5. For β-adrenergic receptor blockade, 4 week-old C57BL/6 mice were treated with propranolol (0.5 g/L in drinking water, Sigma) or control pure water for 3 weeks prior to mobilization. For rescue experiments, clenbuterol (2 mg/kg/day, i.p.) was injected starting day −2 prior to and continued during G-CSF treatment."}, "hematopoietic progenitor": {"test_system": "hematopoietic progenitor", "experiment": "AMD3100-induced hematopoietic progenitor mobilization (stem cell egress)", "type": "in vivo, C57BL/6 mice", "experimental": "Studies were done to determine the effect of destruction of dopaminergic and noradrenergic neurons on stem cell egress. In these studies, newborn C57BL/6 mice were injected subcutaneously with 6OHDA (100 mg/kg, Sigma) or vehicle (normal saline) on postnatal days 2, 4, 6, 8, and 9. Hematopoietic progenitor mobilization was induced at 34 weeks of age, by subcutaneous injection of AMD3100 (5 mg/kg) in normal saline. Peripheral blood was harvested retroorbitally one hour post injection. P-value was calculated using two-tailed Student's t-test assuming unequal variances.\nStudies were done to determine the effect of the beta agonist clenbuterol on stem cell egress. In this study, all drugs were dissolved in normal saline (0.9% w/v NaCl), with a delivery volume of 10 μL/g body mass. 10 μl/g saline i.p. or 2 mg/kg clenbuterol i.p. were given to adult (8-10 week old) C57BL6 mice 1 hour prior to hematopoietic progenitor mobilization induced by […] s.c. Peripheral blood was harvested retroorbitally one hour post AMD3100 injection. P-value was calculated using two-tailed Student's t-test assuming unequal variances."}, "SDF-1": {"test_system": "SDF-1", "experiment": "SDF-1 secretion by stromal cell line MS-5 (ELISA)", "type": "cell-based", "conditions": "72 h exposure of MS-5 cells", "source_text": "Studies were also done to determine the effect of norepinephrine or a beta receptor agonist on SDF-1 secretion by a stromal cell line and to determine if there is a correlation with stem cell egress. […] This corresponds with an increase in the stem cell egress."}, "circulating tumor cells": {"test_system": "circulating tumor cells", "conditions": "AMD3100 5 mg/Kg, blood 1 h later; planned experiment", "description": "Luciferase expression will allow us to monitor distant metastases whereas GFP expression will permit to quantify the number of circulating tumor cells under baseline conditions and following treatment with stem cell “mobilizers”. Firstly, we will evaluate the effect of CXCR4 inhibition, using the specific antagonist AMD3100 on circulating tumor cells. Blood from NOD/SCID mice bearing tumors (day 35 for PC3lucGFP, day 15 for PC3MlucGFP) will be harvested at baseline to evaluate steady-state levels of circulating tumor cells. Mice will then be injected with AMD3100 at a dose of 5 mg/Kg and blood will be harvested 1 h later to evaluate the number of circulating tumor cells. […] To quantify the absolute counts of tumor cells, we will determine the number of circulating nucleated cells using an automatic cell counter (available in the PI's laboratory), and the proportion of GFP+ cells will be evaluated by flow cytometry in which a large sampling (>500,000 events) will be acquired owing to the rarity of circulating tumor cells."}, "[2]": {"test_system": "catecholaminergic neurons", "experiment": "Tissue catecholamines after 6-hydroxydopamine treatment (HPLC, heart)", "type": "in vivo, C57BL/6 mice", "conditions": "5 week-old C57BL6 mice treated perinatally with 6OHDA, n=3, p<0.05 vs PBS", "experimental": "as §2\nHearts from 5 week-old C57BL6 mice treated perinatally with 6-hydroxydopamine (6OHDA) or PBS control were homogenized in 0.1 M trichloroacetic acid containing 10 mM sodium acetate, 0.1 mM EDTA, 1 μM isoproterenol (as internal standard), and 10.5% methanol (pH 3.8). Catecholamine levels were determined by HPLC at the Neurochemistry Core Lab, Vanderbilt University's Center for Molecular Neuroscience research (Nashville, Tenn.). * p<0.05 compared with PBS control. n=3 mice."}, "[3]": {"test_system": "hematopoietic stem and progenitor cells (HSPCs)", "experiment": "Fucoidan-induced mobilization of hematopoietic progenitors (circulating CFU-C)", "type": "in vivo", "conditions": "Cgt−/− mice; 2 doses of 100 mg/kg i.p.", "experimental": "as §1"}, "norepinephrine": {"test_system": "norepinephrine", "experiment": "Norepinephrine turnover in hearts after AMPT", "type": "in vivo, mice", "conditions": "AMPT 300 mg/kg, mean±sem, n=4-5", "experimental": "FIG. 11. Norepinephine turnover in tissues following G-CSF administration in Cgt littermates. • To assess turnover rate, Cgt were administered the catecholamine synthesis inhibitor α-methyl-p-tyrosine (AMPT, 300 mg/kg, Sigma) or were left untreated. Animals were sacrificed 4 h after AMPT injection. Hearts were rapidly removed, weighed, frozen in liquid nitrogen and stored at −80° C. for norepinephrine measurements. NE levels were determined by HPLC at the Neurochemistry Core Lab, Vanderbilt University's Center for Molecular Neuroscience Research (Nashville, Tenn.). Under steady-state conditions, the decline of norepinephrine (NE) reflects the synthesis rate and the sympathetic tone. n=4-5 mice per group; * p<0.05.\nDecline in tissue levels of norepinephrine obeys first order kinetics (Brodie, B. B., Costa, E., Dlabac, A., Neff, N. H., and Smookler, H. H. (1966). Application of steady state kinetics to the estimation of synthesis rate and turnover time of tissue catecholamines. J Pharmacol Exp Ther 154, 493-498): […]"}}, "note": "Structures can show the parent of a compound that is named as a salt. Marks after values point to notes of the source that are not given here."}
{"compound": "CC(C)(C)NCC(O)c1cc(Cl)c(N)c(Cl)c1", "note": "(stereo not drawn) [clenbuterol]", "values": [{"measurement": "G-CSF-induced mobilization with clenbuterol", "setting": "[1]; Dbh+/− controls", "value": "further enhanced mobilization"}, {"measurement": "G-CSF-induced mobilization with clenbuterol", "setting": "[1]; Dbh−/− mice", "value": "rescued in part the mobilization defect"}, {"measurement": "mobilization by clenbuterol by itself", "setting": "[1]; same dose schedule, no G-CSF, data not shown", "value": "did not trigger mobilization"}, {"measurement": "stem cell egress induced by AMD3100 with clenbuterol", "setting": "hematopoietic progenitor; adult C57BL6 mice, clenbuterol 2 mg/kg i.p. 1 hour prior to AMD3100 s.c., blood one hour post AMD3100", "value": "boost stem cell egress in a dose dependent manner"}]}
{"compound": "CC(C)NCC(O)c1ccc(O)c(O)c1", "note": "(stereo not drawn) [Isoproterenol]", "values": [{"measurement": "SDF-1 secretion", "setting": "SDF-1", "value": "decreased in a dose-dependent manner"}]}
{"compound": "NC[C@H](O)c1ccc(O)c(O)c1", "note": "[norepinephrine]", "values": [{"measurement": "SDF-1 secretion", "setting": "SDF-1", "value": "decreased in a dose-dependent manner"}]}
{"compound": "c1cc(CN2CCCNCCNCCCNCC2)ccc1CN1CCCNCCNCCCNCC1", "note": "[AMD3100, 1,1′-[1,4-phenylene-bis(methylene)]-bis(1,4,8,11-tetra-azacyclotetradecane) octahydrochloride dehydrate]", "values": [{"measurement": "number of circulating tumor cells", "setting": "circulating tumor cells", "value": "will increase the number of circulating tumor cells"}]}
{"compound": "NCCc1cc(O)c(O)cc1O", "note": "[6OHDA, 6-hydroxydopamine]", "values": [{"measurement": "Dopamine", "setting": "[2]", "value": "10 ± 10* pmol/mg tissue"}, {"measurement": "Epinephrine", "setting": "[2]", "value": "41 ± 20* pmol/mg tissue"}, {"measurement": "Norepinephrine", "setting": "[2]", "value": "49 ± 10* pmol/mg tissue"}, {"measurement": "G-CSF-elicited mobilization", "setting": "[1]; 6OHDA-treated adult C57BL/6 mice", "value": "significantly reduced"}, {"measurement": "number of HSPCs mobilized by G-CSF", "setting": "[1]; perinatally 6OHDA-lesioned mice vs vehicle littermates", "value": "dramatically reduced"}, {"measurement": "baseline CFU-C counts per bone", "setting": "[1]; perinatally 6OHDA-treated mice, steady-state BM", "value": "did not alter"}, {"measurement": "stem cell egress induced by AMD3100", "setting": "hematopoietic progenitor; C57BL/6 mice given 6OHDA 100 mg/kg s.c. postnatal days 2, 4, 6, 8, 9, AMD3100 5 mg/kg s.c. at 34 weeks of age, blood one hour post injection", "value": "decreased in a dose dependent manner"}]}
{"compound": "fucoidan", "values": [{"measurement": "CFU-C mobilization by fucoidan", "setting": "[3]", "value": "not mobilized"}]}
{"compound": "CC(C)NCC(O)COc1cccc2ccccc12", "note": "(stereo not drawn) [propranolol, 1-[(1-Methylethyl)amino]-3-(1-naphthalenyloxy)-2-propanol]", "values": [{"measurement": "reduction of the number of HSPCs elicited by G-CSF", "setting": "[1]; C57BL6 mice treated for three weeks with propranolol (0.5 g/L in drinking water)", "value": "> 20", "unit": "%"}]}
{"compound": "CC(N)(Cc1ccc(O)cc1)C(=O)O", "note": "(stereo not drawn) [AMPT, α-methyl-p-tyrosine]", "values": [{"measurement": "Level after AMPT inhibition, 4 h (norepinephrine, heart)", "setting": "norepinephrine; Cgt+/+, Cgt+/− mice", "value": "198 ± 38", "unit": "pg/mg wet weight"}, {"measurement": "Level after AMPT inhibition, 4 h (norepinephrine, heart)", "setting": "norepinephrine; Cgt−/− mice", "value": "335 ± 32", "unit": "pg/mg wet weight"}]}
